In brackets after ≈: the same amount, converted by molar mass. Read-outs that look alike come from different tables or passages of the source.
Tests used:
[1] = test system: E. coli; conditions: E. coli
[2] = test system: rat erythrocytes; conditions: AMPs 100 μM, 1 hour 37 °C, pos. 10% Triton X-100, neg. PBS, 3 x 2 replicates
Description: (§1) Cytotoxicity studies are important during characterization of novel compounds or materials intended for interactions within human biological systems in vivo. Evaluation of the extent to which the compound induces disruption of the membrane of erythrocytes (red blood cells), thereby causing release of cellular content, often constitutes an initial step in such cytotoxicity assessments. The assay used in this context is generally referred to as the hemolysis assay, which has the advantages of being cheap, accessible, and simple to perform. Blood is drawn from a human or an animal, and next, the washed erythrocytes are incubated together with the compound or material under investigation. If the compound causes hemolysis, hemoglobin (along with other cellular constituents) will be released into the supernatant.
(§2) Blood from mice, rats, and rabbits was provided by the Department of Comparative Medicine at Oslo University Hospital (Marianne Aannestad). For mice and rats, the blood was collected from the heart by using 25 G and 21 G needles, respectively, whereas for rabbits, the blood was collected by free bleed through the ear using a yellow neoflon (24 G). All animals were wild type and anesthetized prior to the procedure.
(§3) All blood was collected in Lithium Heparin tubes 4 mL (Greiner Bio-One, Kremsmünster, Austria) or Coagulation sodium citrate 3.2% tubes 3 mL (Greiner Bio-One).
(§4) AMP 2 contained an N-terminal hexanoic acid moiety, whereas all peptides contained amidated C-termini. These three peptides were synthesized by Genscript Inc. (Piscataway, NJ, USA), and stock solutions of 1 mg/mL were made from the purchased powders. […] All peptides were diluted to yield a 100 μM final concentration in the hemolysis assays.
(§5) Triton X-100 (T8787) and Tween-20 (P2287) detergents were purchased from Sigma Aldrich and diluted to obtain 10% stock solutions by weighing (w/v). A sodium Dodecyl Sulfate (SDS) 10% solution was purchased from Invitrogen (Waltham, MA, USA, 15553027). All subsequent dilutions annotated in figures were made from these stocks.
(§6) As soon as possible after phlebotomy, the blood samples were centrifuged at 1700× g for 5 min. The supernatant was removed by aspiration and 2 mL of PBS pH 7 was added. The washing step was repeated three times or until the supernatant was clear. After final aspiration, the remaining pellet was diluted 1:100 in PBS pH 7 to obtain a 1% erythrocyte suspension (or 1:100, 1:50, and 1:20 for assays testing the effect of erythrocyte concentration). For experiments using whole blood, the washing steps were not performed, but downstream experimentation was identical. For experiments performed with 96-well plates, 50 μL of test compound, water, or detergent were mixed with 50 μL of blood sample (1% erythrocyte suspension or whole blood). For experiments using larger volumes, 250 μL of test compound, water, or detergent were mixed with 250 μL blood sample in an Eppendorf tube. Samples were subsequently incubated at 37 °C for 60 min (or 15, 30, 60, 90, or 120 min for assays evaluating the effect of incubation time). After incubation, the plates/tubes were centrifuged at 1700× g for 5 min, and then 50 μL of the supernatants were transferred to transparent, flat-bottom 96-well plates (Anicrin, A013418). Finally, absorption was measured at 405, 530, and 570 nm in a Victor Nivo Multimode microplate reader (Perkin Elmer, Waltham, MA, USA).

[3] = test system: rabbit whole blood; conditions: for Hemolysis ratio: rabbit whole blood, AMPs 100 μM, 1 hour 37 °C, 3 x 2 replicates
Description: as §1, §2, §3, §4, §5, §6

[4] = test system: rabbit erythrocytes; conditions: AMPs 100 μM, 1 hour 37 °C, pos. 10% Triton X-100, neg. PBS, 3 x 2 replicates
Description: as §1, §2, §3, §4, §5, §6

[5] = test system: mouse erythrocytes; conditions: AMPs 100 μM, 1 hour 37 °C, pos. 10% Triton X-100, neg. PBS, 3 x 2 replicates
Description: as §1, §2, §3, §4, §5, §6

[6] = test system: human whole blood; conditions: for Calculated hemolysis ratio: human whole blood, peptides 100 μM, 60 min 37 °C, neg. PBS, 3 x 2 replicates
[7] = test system: washed human erythrocytes; test: Hemolysis assay, washed human erythrocytes
[8] = test system: washed human erythrocytes; test: Flow cytometry of treated erythrocytes with live/dead amine-reactive stain; format: cell-based; conditions: washed human erythrocytes treated 60 minutes, AMPs 100 μM, amine-reactive dye 488, flow cytometry 533/30 nm
Experimental: Briefly, a 1% washed erythrocyte solution was diluted to ~10^5 cells/mL and 0.4% Trypan blue (1:1 ratio) was added before 10 μL of the stained cell suspension was added to the Countess cell counting chamber slide. After a 30 s incubation, the slide was inserted into the instrument for automatic cell counting.
The Countess II automated cell counter (see above) was used to adjust the negative control sample to ~10^5 cells/mL and to subsequently dilute all samples by the same factor. Then, 0.5 μL of live/dead amine-reactive dye 488 (Fisher Scientific, Waltham, MA, USA) was added to 0.5 mL cell suspension and incubated for 30 min protected from light. Subsequently, the samples were washed twice with PBS pH 7 containing 1% bovine serum albumin (BSA), and finally resuspended in PBS pH 7 with 1% BSA. Cells were next counted, and the fluorescence measured using the 533/30 nm filter in an Accuri C6 flow cytometer (BD Biosciences, Franklin Lakes, NJ, USA).

CC[C@H](C)[C@H](NC(=O)[C@H](CC(C)C)NC(=O)[C@H](CCC(N)=O)NC(=O)[C@H](CC(C)C)NC(=O)[C@@H](NC(=O)[C@H](C)NC(=O)[C@H](CCCCN)NC(=O)[C@H](CCCCN)NC(=O)[C@H](CCCCN)NC(=O)[C@H](CCCCN)NC(=O)[C@H](CCCCN)NC(=O)[C@@H](NC(=O)[C@H](CCCNC(=N)N)NC(=O)[C@H](CCCCN)NC(=O)[C@@H](NC(=O)[C@H](CC(C)C)NC(=O)[C@H](Cc1ccc(O)cc1)NC(=O)[C@H](CCCNC(=N)N)NC(=O)CNC(=O)[C@H](CC(=O)O)NC(=O)[C@@H](NC(=O)[C@@H](N)CCSC)[C@@H](C)O)[C@@H](C)CC)C(C)C)C(C)C)C(=O)N[C@@H](CC(C)C)C(=O)N[C@@H](CCCCN)C(=O)N[C@@H](Cc1ccccc1)C(=O)N[C@@H](CC(C)C)C(N)=O [AMP 3]
Minimum inhibitory concentration (E. coli) [1]: 4 µM (≈ 12.5 µg/mL) | Hemolysis ratio ([2]; Table S4: washed rat erythrocytes, OD 405 nm): 29.5 +/- 8.2% | Hemolysis ratio ([2]; washed rat erythrocytes, OD 530 nm): 30.7 +/- 13.1% | Hemolysis ratio ([2]; washed rat erythrocytes, OD 570 nm): 31.1 +/- 12.7% | Fold decrease of hemolytic effect in rabbit whole blood vs washed rabbit erythrocytes ([3]; cf. Tables S3 and S4, 100 μM): 4 fold | Hemolysis ratio ([3]; OD 530 nm, pos. 10% SDS, neg. PBS): 13.2 +/- 3% | Hemolysis ratio ([3]; OD 570 nm, pos. 10% Triton X-100, neg. PBS): 13.1 +/- 3.2% | Hemolysis ratio ([4]; Table S4: washed rabbit erythrocytes, OD 405 nm): 53.2 +/- 7.4% | Hemolysis ratio ([4]; washed rabbit erythrocytes, OD 530 nm): 50.1 +/- 7.7% | Hemolysis ratio ([4]; washed rabbit erythrocytes, OD 570 nm): 52.7 +/- 8.2% | Hemolysis ratio ([5]; Table S4: washed mouse erythrocytes, OD 405 nm): 77.1 +/- 3.8% | Hemolysis ratio ([5]; washed mouse erythrocytes, OD 530 nm): 71.1 +/- 3.2% | Hemolysis ratio ([5]; washed mouse erythrocytes, OD 570 nm): 47.7 +/- 2.5% | Calculated hemolysis ratio ([6]; OD 405 nm (signal saturated), pos. 10% SDS): 15.5 ± 7.1% | Calculated hemolysis ratio ([6]; OD 530 nm, pos. 10% SDS): 2.7% | Calculated hemolysis ratio ([6]; OD 570 nm, pos. 10% Triton X-100 (table title; text says 10% SDS)): 3.8% | Fold reduction in HR in human whole blood in comparison with washed erythrocytes measured at 405 nm ([6]; whole blood HR with 10% SDS as positive control (Table 5) vs washed erythrocytes (Table 6), 100 μM): > 27 fold | Calculated hemolysis ratio ([7]; 1% washed human erythrocytes, OD 530 nm, peptides 100 μM, 60 min 37 °C, pos. 10% Triton X-100, neg. PBS, 3 x 2 replicates): 68.4 ± 15% | Calculated hemolysis ratio ([7]; 1% washed human erythrocytes, OD 570 nm, peptides 100 μM, 60 min 37 °C, pos. 10% Triton X-100, neg. PBS, 3 x 2 replicates): 65.7 ± 11.6% | Calculated Hemolysis (%) ([7]; 2% pooled human erythrocytes, AMPs 100 µM, 60 min 37 °C, 405 nm, pos. 10% Triton X-100, neg. PBS, 3 x 2 replicates): 41.1 ± 3.2% | Calculated Hemolysis (%) ([7]; 5% pooled human erythrocytes, AMPs 100 µM, 60 min 37 °C, 405 nm, pos. 10% Triton X-100, neg. PBS, 3 x 2 replicates): 45.7 ± 8.2% | Calculated hemolysis ratio ([7]; Table 1: 1% human erythrocytes, 100 µM, 60 min 37 °C, OD 405 nm, pos. 10% Triton X-100, neg. PBS, mean ± SD, 3 experimental x 2 technical replicates): 37 ± 5.1% | Calculated hemolysis ratio ([7]; Table 2: pooled blood from all 10 individuals, 1% erythrocytes, AMPs 100 µM, 60 min 37 °C, 405 nm, pos. 10% Triton X, neg. PBS, 3 x 2 replicates): 45.4 ± 4.8% | Calculated Hemolysis (%) ([7]; Table 3: 1% pooled human erythrocytes, AMPs 100 µM, 60 min 37 °C, 405 nm, pos. 10% Triton X-100, neg. PBS, 3 x 2 replicates): 45.4 ± 4.8% | Calculated hemolysis ratio ([7]; Table 4: incubation 60 min, 37 °C, 1% human erythrocytes, AMPs 100 µM, 405 nm, pos. 10% Triton X-100, neg. PBS, 3 biological x 2 technical replicates): 64.6 ± 6.8% | Calculated hemolysis ratio ([7]; Table 6: 1% washed human erythrocytes, OD 405 nm, peptides 100 μM, 60 min 37 °C, pos. 10% Triton X-100, neg. PBS, 3 x 2 replicates): 73.5 ± 14.4% | Calculated hemolysis ratio ([7]; human individual # 1, 1% erythrocytes, AMPs 100 µM, 60 min 37 °C, 405 nm, pos. 10% Triton X, neg. PBS, 3 x 2 replicates): 36.4 ± 5% | Calculated hemolysis ratio ([7]; human individual # 2, 1% erythrocytes, AMPs 100 µM, 60 min 37 °C, 405 nm, pos. 10% Triton X, neg. PBS, 3 x 2 replicates): 39.3 ± 6% | Calculated hemolysis ratio ([7]; human individual # 3, 1% erythrocytes, AMPs 100 µM, 60 min 37 °C, 405 nm, pos. 10% Triton X, neg. PBS, 3 x 2 replicates): 49.4 ± 8.5% | Calculated hemolysis ratio ([7]; human individual # 4, 1% erythrocytes, AMPs 100 µM, 60 min 37 °C, 405 nm, pos. 10% Triton X, neg. PBS, 3 x 2 replicates): 43.6 ± 4.2% | Calculated hemolysis ratio ([7]; human individual # 5, 1% erythrocytes, AMPs 100 µM, 60 min 37 °C, 405 nm, pos. 10% Triton X, neg. PBS, 3 x 2 replicates): 38.3 ± 7.3% | Calculated hemolysis ratio ([7]; human individual # 6, 1% erythrocytes, AMPs 100 µM, 60 min 37 °C, 405 nm, pos. 10% Triton X, neg. PBS, 3 x 2 replicates): 45.7 ± 6.4% | Calculated hemolysis ratio ([7]; human individual # 7, 1% erythrocytes, AMPs 100 µM, 60 min 37 °C, 405 nm, pos. 10% Triton X, neg. PBS, 3 x 2 replicates): 37.7 ± 6.9% | Calculated hemolysis ratio ([7]; human individual # 8, 1% erythrocytes, AMPs 100 µM, 60 min 37 °C, 405 nm, pos. 10% Triton X, neg. PBS, 3 x 2 replicates): 45.6 ± 9.2% | Calculated hemolysis ratio ([7]; human individual # 9, 1% erythrocytes, AMPs 100 µM, 60 min 37 °C, 405 nm, pos. 10% Triton X, neg. PBS, 3 x 2 replicates): 42.1 ± 4.7% | Calculated hemolysis ratio ([7]; human individual # 10, 1% erythrocytes, AMPs 100 µM, 60 min 37 °C, 405 nm, pos. 10% Triton X, neg. PBS, 3 x 2 replicates): 50.3 ± 4.6% | Calculated hemolysis ratio ([7]; incubated in polypropylene tubes, 1% washed human erythrocytes, peptides 100 μM, 60 min 37 °C, 405 nm, pos. 10% Triton X-100, neg. PBS, 3 x 2 replicates): 57.5 ± 13.2% | Calculated hemolysis ratio ([7]; incubated in polystyrene tubes, 1% washed human erythrocytes, peptides 100 μM, 60 min 37 °C, 405 nm, pos. 10% Triton X-100, neg. PBS, 3 x 2 replicates): 66.7 ± 12.7% | Calculated hemolysis ratio ([7]; incubation 15 min, 37 °C, 1% human erythrocytes, AMPs 100 µM, 405 nm, pos. 10% Triton X-100, neg. PBS, 3 biological x 2 technical replicates): 54.8 ± 8.2% | Calculated hemolysis ratio ([7]; incubation 30 min, 37 °C, 1% human erythrocytes, AMPs 100 µM, 405 nm, pos. 10% Triton X-100, neg. PBS, 3 biological x 2 technical replicates): 56.6 ± 7.4% | Calculated hemolysis ratio ([7]; incubation 90 min, 37 °C, 1% human erythrocytes, AMPs 100 µM, 405 nm, pos. 10% Triton X-100, neg. PBS, 3 biological x 2 technical replicates): 63 ± 4.5% | Calculated hemolysis ratio ([7]; incubation 120 min, 37 °C, 1% human erythrocytes, AMPs 100 µM, 405 nm, pos. 10% Triton X-100, neg. PBS, 3 biological x 2 technical replicates): 74.3 ± 21.1% | Observed hemolytic properties (qualitative) ([7]; reason for choice of the AMPs): high | Calculated hemolysis ratio ([7]; total incubation volume 100 μL, 1% washed human erythrocytes, peptides 100 μM, 60 min 37 °C, 405 nm, pos. 10% Triton X-100, neg. PBS, 3 x 2 replicates): 66.7 ± 12.7% | Calculated hemolysis ratio ([7]; total incubation volume 500 μL, 1% washed human erythrocytes, peptides 100 μM, 60 min 37 °C, 405 nm, pos. 10% Triton X-100, neg. PBS, 3 x 2 replicates): 72.7 ± 10.4% | Fluorescence intensity per cell of remaining intact cells (live/dead stain) [8]: surprisingly high fluorescence intensity measurements per cell

Source: publication PMC9917735, “Optimization of the Hemolysis Assay for the Assessment of Cytotoxicity” (International Journal of Molecular Sciences, 2023)
